Test results taken from patent publication US20240381872A1, “SUBSTITUTED 2,3-DIHYDRO[1,3]THIAZOLO[4,5-B]PYRIDINES, SALTS THEREOF AND THEIR USE AS HERBICIDALLY ACTIVE SUBSTANCES” (BAYER AKTIENGESELLSCHAFT, priority 2021, published 2024).

What was measured:
Assay type in all cases: in vivo
[1] = system: Matricaria inodora (MATIN); assay: Herbicidal pre-emergence action, section A (Table A6); details: application rate 1280 g/ha, visual grading after ca. 3 weeks vs untreated controls
In short: (§1)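 Double sowings in sandy loam; soil-surface spray of WP/EC aqueous preparations, 0.5% additive, 600 l/ha water. Greenhouse, optimum conditions. Visual % damage at ~3 wk vs untreated (100% = dead, 0% = control-like).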

[2] = system: Abutilon theophrasti (ABUTH); assay: Herbicidal post-emergence action, section B (Table B1); details: Abutilon theophrasti, 504 h, application rate 1280 g/ha, rated visually after about 3 weeks, read-out: post-emergence activity against ABUTH in %
Procedure: (§2) Seeds of mono- and dicotyledonous weed plants were placed in plastic pots in sandy loam soil (doubly sown with in each case one species of mono- or dicotyledonous weed plants per pot), covered with soil and cultivated in a greenhouse under controlled growth conditions. 2 to 3 weeks after sowing, the test plants were treated at the one-leaf stage. The compounds of the invention, formulated in the form of wettable powders (WP) or as emulsion concentrates (EC), were applied onto the green parts of the plants as aqueous suspension or emulsion with addition of 0.5% additive at a water application rate of 600 liters per hectare (converted). After the test plants had been kept in the greenhouse under optimum growth conditions for about 3 weeks, the activity of the preparations was rated visually in comparison to untreated controls. For example, 100% activity=the plants have died, 0% activity=like control plants.

Stellaria media (STEME) [3] = assay: Herbicidal post-emergence action, section B (Table B9); details: application rate 320 g/ha, visual rating about 3 weeks after treatment vs untreated controls
In short: (§3)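 In this greenhouse assay, compounds in WP or EC form were applied post-emergence with 0.5% additive at a water rate of 600 liters per hectare. Treatment took place at the one-leaf stage, and injury was rated visually about 3 weeks later against untreated plants.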

Lolium rigidum (LOLRI) [4] = assay: Herbicidal pre-emergence action, section A (Table A5); details: visual grading after ca. 3 weeks vs untreated controls
In short: as §1

Setaria viridis (SETVI) [5] = assay: Herbicidal pre-emergence action, section A (Table A8)
In short: as §1

[6] = system: Amaranthus retroflexus (AMARE); assay: Herbicidal pre-emergence action, section A (Table A11)
In short: as §1

[7] = system: Digitaria sanguinalis (DIGSA); assay: Herbicidal post-emergence action, section B (Table B12); details: Digitaria sanguinalis, post-emergence, 504 h; application rate 1280 g/ha; visual rating about 3 weeks after treatment vs untreated controls; read-out: post-emergence activity against DIGSA in %
Procedure: as §2

Kochia scoparia (KCHSC) [8] = assay: Herbicidal post-emergence action, section B (Table B4); details: Bassia scoparia, post-emergence, 504 h; application rate 320 g/ha; visual rating about 3 weeks after treatment vs untreated controls; read-out: post-emergence activity against KCHSC in %
In short: as §3

Veronica persica (VERPE) [9] = assay: Herbicidal post-emergence action, section B (Table B10); details: Veronica persica, post-emergence, 504 h; application rate 320 g/ha; visual rating about 3 weeks after treatment vs untreated controls; read-out: post-emergence activity against VERPE in %
In short: as §3

Poa annua (POAAN) [10] = assay: Herbicidal post-emergence action, section B (Table B7); details: Poa annua, post-emergence, 504 h; application rate 320 g/ha; visual rating about 3 weeks after treatment vs untreated controls; read-out: post-emergence activity against POAAN in %
In short: as §3

[11] = system: Echinochloa crus-galli (ECHCG); assay: Herbicidal pre-emergence action, section A (Table A3); details: application rate 320 g/ha, visual grading after ca. 3 weeks vs untreated controls
In short: as §1

Kochia scoparia (KCHSC) [12] = assay: Herbicidal pre-emergence action, section A (Table A4); details: visual grading after ca. 3 weeks vs untreated controls
In short: as §1

[13] = system: Echinochloa crus-galli (ECHCG); assay: Herbicidal post-emergence action, section B (Table B3); details: application rate 1280 g/ha, rated visually after about 3 weeks
Procedure: as §2

Lolium rigidum (LOLRI) [14] = assay: Herbicidal post-emergence action, section B (Table B5); details: application rate 1280 g/ha, visual rating about 3 weeks after treatment vs untreated controls
Procedure: as §2

Setaria viridis (SETVI) [15] = assay: Herbicidal post-emergence action, section B (Table B8); details: Setaria viridis, post-emergence, 504 h; application rate 1280 g/ha; visual rating about 3 weeks after treatment vs untreated controls; read-out: post-emergence activity against SETVI in %
Procedure: as §2

[16] = system: Amaranthus retroflexus (AMARE); assay: Herbicidal post-emergence action, section B (Table B11); details: visual rating about 3 weeks after treatment vs untreated controls
In short: as §3

Poa annua (POAAN) [17] = assay: Herbicidal pre-emergence action, section A (Table A7); details: visual grading after ca. 3 weeks vs untreated controls
In short: as §1

[18] = system: Digitaria sanguinalis (DIGSA); assay: Herbicidal pre-emergence action, section A (Table A12); details: application rate 320 g/ha
In short: as §1

Veronica persica (VERPE) [19] = assay: Herbicidal pre-emergence action, section A (Table A10); details: application rate 1280 g/ha
In short: as §1

Stellaria media (STEME) [20] = assay: Herbicidal pre-emergence action, section A (Table A9); details: application rate 320 g/ha
In short: as §1

[21] = system: Alopecurus myosuroides (ALOMY); assay: Herbicidal pre-emergence action, section A (Table A2); details: application rate 1280 g/ha; visual grading after ca. 3 weeks vs untreated controls
Text: Seeds of mono- and dicotyledonous weed plants were sown in plastic pots (double sowings with one species of mono- and one species of dicotyledonous weed plants per pot), in sandy loam, and covered with soil. The compounds according to the invention, formulated in the form of wettable powders (WP) or as emulsifiable concentrates (EC), were applied to the surface of the covering soil as aqueous suspension or emulsion, with the addition of 0.5% of an additive, at an application rate of 600 l of water per hectare (converted). Following treatment, the pots were placed in a greenhouse and kept under optimum growth conditions for the test plants. The visual grading of the damage to the test plants was carried out after ca. 3 weeks in comparison to untreated controls (herbicidal effect in percent (%): 100% effect=plants have died off, 0% effect=as control plants).

In the case of `NB1OB(N2CSc3cc(Br)c(-c4ccccc4Cl)nc32)O1` [Example I-048, 4-[6-bromo-5-(2-chlorophenyl)-2,3-dihydro[1,3]thiazolo[4,5-b]pyridin-3(2H)-yl]-1,3,2,4-dioxa-diboretan-2-amine], the pest or weed control at 1280 g/ha ([1]; Tripleurospermum inodorum, pre-emergence, 504 h, read-out: pre-emergence activity against MATIN in %) is reported as 90%, the pest or weed control at 1280 g/ha [2] is reported as 90% and the pest or weed control at 320 g/ha (Stellaria media (STEME) [3]; Stellaria media, post-emergence, 504 h, read-out: post-emergence activity against STEME in %) is reported as 90%. The pest or weed control at 1280 g/ha (Lolium rigidum (LOLRI) [4]; Lolium rigidum, pre-emergence, 504 h, application rate 1280 g/ha, read-out: pre-emergence activity against LOLRI in %) was 100%, the pest or weed control at 1280 g/ha (Setaria viridis (SETVI) [5]; Setaria viridis, 504 h, application rate 1280 g/ha, read-out: pre-emergence activity against SETVI in %) was 100% and the pest or weed control at 1280 g/ha ([6]; Amaranthus retroflexus, 504 h, application rate 1280 g/ha, read-out: pre-emergence activity against AMARE in %) was 90%. The pest or weed control at 1280 g/ha [7] was 90%, the pest or weed control at 320 g/ha (Kochia scoparia (KCHSC) [8]) was 90% and the pest or weed control at 320 g/ha (Veronica persica (VERPE) [9]) was 90%. For the same molecule, the pest or weed control at 320 g/ha (Poa annua (POAAN) [10]) was 90%, the pest or weed control at 320 g/ha ([11]; Echinochloa crus-galli, pre-emergence, 504 h, read-out: pre-emergence activity against ECHCG in %) was 100% and the pest or weed control at 1280 g/ha (Kochia scoparia (KCHSC) [12]; Bassia scoparia, pre-emergence, 504 h, application rate 1280 g/ha, read-out: pre-emergence activity against KCHSC in %) was 90%. The pest or weed control at 1280 g/ha ([13]; Echinochloa crus-galli, 504 h, read-out: post-emergence activity against ECHCG in %) was 90%, the pest or weed control at 1280 g/ha (Lolium rigidum (LOLRI) [14]; Lolium rigidum, post-emergence, 504 h, read-out: post-emergence activity against LOLRI in %) was 90% and the pest or weed control at 1280 g/ha (Setaria viridis (SETVI) [15]) was 90%. The pest or weed control at 320 g/ha ([16]; Amaranthus retroflexus, post-emergence, 504 h, application rate 320 g/ha, read-out: post-emergence activity against AMARE in %) was 90%, the pest or weed control at 1280 g/ha (Poa annua (POAAN) [17]; Poa annua, pre-emergence, 504 h, application rate 1280 g/ha, read-out: pre-emergence activity against POAAN in %) was 100% and the pest or weed control at 320 g/ha ([18]; Digitaria sanguinalis, 504 h, read-out: pre-emergence activity against DIGSA in %) was 100%.

For `Cc1cc2c(nc1-c1cccc(F)c1F)N(C(=O)C13CCCC1C(Cl)=NO3)CS2` (stereo not drawn) [Example I-156], the “pre-emergence activity against MATIN in %” value [1] was 90%, the “pre-emergence activity against VERPE in %” value (Veronica persica (VERPE) [19]) was 90% and the “post-emergence activity against STEME in %” value (Stellaria media (STEME) [3]) was 90%. The “pre-emergence activity against LOLRI in %” value (Lolium rigidum (LOLRI) [4]; application rate 320 g/ha) was 90%, the “pre-emergence activity against SETVI in %” value (Setaria viridis (SETVI) [5]; application rate 320 g/ha) was 100% and the “pre-emergence activity against AMARE in %” value ([6]; application rate 320 g/ha) was 90%. For the same molecule, the “pre-emergence activity against ECHCG in %” value [11] was 90%, the “pre-emergence activity against KCHSC in %” value (Kochia scoparia (KCHSC) [12]; application rate 320 g/ha) was 90% and the “pre-emergence activity against STEME in %” value (Stellaria media (STEME) [20]) was 90%. The “post-emergence activity against ECHCG in %” value [13] was 90%, the “post-emergence activity against LOLRI in %” value (Lolium rigidum (LOLRI) [14]) was 90% and the “post-emergence activity against AMARE in %” value ([16]; application rate 1280 g/ha) was 90%. The “pre-emergence activity against POAAN in %” value (Poa annua (POAAN) [17]; application rate 320 g/ha) was 100%, the “pre-emergence activity against DIGSA in %” value [18] was 90% and the “pre-emergence activity against ALOMY in %” value [21] was 90%.
